The source of these data is ChEMBL document CHEMBL3244209, “Tripeptide analogues of melanocyte-stimulating hormone release-inhibiting hormone (Pro-Leu-Gly-NH2) as inhibitors of oxotremorine-induced tremor” (1979).

Active and inactive are the calls of the source. No cut-off for these calls is given here. Square brackets hold non-standard residues; d marks the D form. Peptide text beside a SMILES is read from it. * marks the point of attachment. pGlu = O=C1CC[C@@H](C(=O)O)N1; NHtBu = CC(C)(C)N*; NHiPr = CC(C)N*; NHPr = CCCN*; For = O=C*

The test system of one experiment is Mus musculus. The experiment in a line: Inhibition of oxotremorine-induced tremor in NMRI mouse at 0.13 to 16 mg/kg, ip administered 1 hr prior to oxotremorine challenge. The class given is functional, organism-based.
Turning to `C#CCNC(=O)CNC(=O)[C@H](CC(C)C)NC(=O)[C@@H]1CCC(=O)N1`, the inhibition result is “inactive”. On to `CC(C)C[C@@H]1NC(=O)[C@@H]2CCCN2C1=O`, for which the inhibition result was “inactive”. With `CC(C)C[C@H](NC(=O)C1CCCC1)C(=O)NCC(N)=O`, the inhibition result was “inactive”. Same read-out and setting: in the case of `CCN(C)C(=O)CNC(=O)[C@H](CC(C)C)NC(=O)[C@@H]1CCC(=O)N1` it was “inactive”; in that of `CCNC(=O)CNC(=O)[C@H](CC(C)C)NC(=O)C1CCCC1`, “inactive”; in that of `CC(C)C[C@H](NC(=O)[C@@H]1CCCN1C=O)C(=O)NCC(N)=O` (For-Pro-Leu-Gly-NH2), “inactive”. On the same count and under the same terms, in the case of `CCNC(=O)CNC(=O)[C@H](CC(C)C)NC(=O)[C@@H]1CCCN1C=O` (For-Pro-Leu-Gly-NHEt) it was “inactive”; in that of `N=C(N)NCCC[C@H](NC(=O)[C@@H]1CCCN1)C(=O)NCC(N)=O` (H-Pro-Arg-Gly-NH2), “inactive”. Same read-out and setting: in the case of `NCCCC[C@H](NC(=O)[C@@H]1CCCN1)C(=O)NCC(N)=O` (H-Pro-Lys-Gly-NH2) it was “inactive”; in that of `CNC(=O)CNC(=O)[C@H](CC(C)C)NC(=O)[C@@H]1CCC(=O)N1` ([pGlu]-Leu-Gly-NHMe), “inactive”; in that of `CC(C)C[C@H](NC(=O)[C@@H]1CCC(=O)N1)C(=O)NCC(=O)NC(C)(C)C` ([pGlu]-Leu-Gly-NHtBu), “inactive”.

For a further experiment, the system named is Mus musculus. In words: Inhibition of oxotremorine-induced tremor in ip dosed NMRI mouse administered 1 hr prior to oxotremorine challenge. The class given is functional.
`CC(C)C[C@H](NC(=O)[C@@H]1CCCN1)C(=O)NCC(N)=O` (H-Pro-Leu-Gly-NH2): the Activity is 3.6 mg/kg. Same read-out and setting: in the case of `CCNC(=O)CNC(=O)[C@H](CC(C)C)NC(=O)[C@@H]1CCC(=O)N1` ([pGlu]-Leu-Gly-NHEt) it was 7.8 mg/kg.

Take `CCCNC(=O)CNC(=O)[C@H](CC(C)C)NC(=O)[C@@H]1CCC(=O)N1` ([pGlu]-Leu-Gly-NHPr): the Activity was determined as 10 mg/kg. With `CC(C)C[C@H](NC(=O)[C@@H]1CCC(=O)N1)C(=O)NCC(=O)NC(C)C` ([pGlu]-Leu-Gly-NHiPr), the Activity is 2.9 mg/kg. With `CC(C)C[C@H](NC(=O)[C@@H]1CCC(=O)N1)C(=O)NCC(=O)N(C)C` ([pGlu]-Leu-Gly-NMe2), the Activity is 1.3 mg/kg.
